The record followed here is patent US5883077A, “Inhibitors of factor Xa” (Corvas International, Inc., priority 1993, dated 1999).

Common to all, as to assay type: biochemical
The target in one test is T1, Human factor Xa (Homo sapiens, UniProt P00742).
T1 construct: purchased Enzyme Research Laboratories
Kind of test: Factor Xa assay, chromogenic substrate S2765. The settings on record: taken as 100 for each inhibitor by definition. The protocol:
(§1) To assay their activities, the compounds of the present invention are dissolved in buffer to give solutions containing concentrations ranging under assay concentrations from 0 to about 100 μM. The enzyme to be tested is then added to a solution containing a specified concentration of the test compound. Then after an incubation period, synthetic substrate for the enzyme being tested is added. The rate of substrate turnover is determined spectrophotometrically. The IC50 of the test compound is determined for each test compound in assays for factor xa, factor XIa, thrombin and tPA. IC50 is that concentration of test compound giving 50% inhibition of the substrate turnover. Percent selectivity is used to indicate selectivity of a compound in inhibiting Factor Xa in comparison with either Factor XIa, thrombin or tPA. Percent selectivity of a particular compound for either Factor XIa, thrombin or tPA refers to a number obtained by dividing the product of one hundred and the IC50 of the compound for Factor Xa by the IC50 of the compound for either Factor XIa, thrombin or tPA.
(§2) The specificity of the peptide aldehydes through was determined in vitro by measurement of their IC50 against factor Xa, factor XIa, thrombin and tissue plasminogen activator (tPA). Peptide aldehyde which has been described in the art was run as a comparison. A specific concentration of enzyme and its substrate were challenged with varying concentrations of inhibitor. IC50 is that concentration of inhibitor giving 50% inhibition of catalytic activity, under the assay conditions. Specific assay procedures used are presented below.
Enzyme activity was determined using as substrate, S2765 (N-α-benzyloxycarbonyl-D-argininyl-L-glycyl-L-arginine-p-nitroanilide dihydrochloride) which was obtained from Kabi Diagnostica. The substrate was made up in deionized water prior to use.
Human factor Xa was obtained from Enzyme Research Laboratories. The enzyme was diluted into TBSA prior to use.
The assay was run by combining in appropriate wells 50 μL of TBSA, 50 μL of inhibitor in TBSA or TBSA (as negative control) and 50 μL of 2 nM human Factor Xa or TBSA (as background control). After incubating this mixture for 60 minutes at room temperature, 50 μL of 1 mM S-2765 was added to each well and the initial rate of the change of the optical density at 405 nm (OD405nm) for each well was determined. OD405nm was measured every 10 seconds for 5 minutes.

Another test concerns the target T2, Human factor XIa (Homo sapiens, UniProt P03951).
T2 construct: purchased Enzyme Research Laboratories, Inc
Put plainly: Factor XIa assay, chromogenic substrate S2366. The conditions noted are these: 100 times the IC50 for factor Xa divided by the IC50 of factor XIa. The protocol: as §1, §2
Enzyme activity was determined using as substrate, S2366 (L-pyroglutamyl-L-prolyl-L-arginine-p-nitroanilide hydrochloride) which was obtained from Kabi Diagnostica. The substrate was made up in deionized water prior to use.
Human factor XIa was obtained from Enzyme Research Laboratories, Inc. The enzyme was diluted into TBSA prior to use.
The assay was run by combining in appropriate wells 50 μL of TBSA, 50 μL of inhibitor in TBSA or TBSA (as negative control) and 50 μL of 2 nM human Factor XIa or TBSA (as background control). After incubating this mixture for 60 minutes at room temperature, 50 μL of 6 mM S-2366 was added to each well and the initial rate of the change of the optical density at 405 nm (OD405nm) for each well was determined. OD405nm was measured every 10 seconds for 5 minutes.

The next test addresses T3, Human α-thrombin (Homo sapiens, UniProt P00734).
T3 construct: Human α-thrombin was obtained from Enzyme Research Laboratories, Inc; purchased Enzyme Research Laboratories, Inc
Kind of test: Thrombin assay, chromogenic substrate S2238. The conditions noted are these: 100 times the IC50 for factor Xa divided by the IC50 of thrombin. The protocol: as §1, §2
Enzyme activity was determined using as substrate, S2238 (D-phenylalanyl-L-pipecolyl-L-arginine-p-nitroanilide dihydrochloride) which was obtained from Kabi Diagnostica. The substrate was made up in deionized water prior to use.
Human α-thrombin was obtained from Enzyme Research Laboratories, Inc. The enzyme was diluted into TBSA prior to use.
The assay was run by combining in appropriate wells 50 μL of TBSA, 50 μL of inhibitor in TBSA or TBSA (as negative control) and 50 μL of 4 nM human α-thrombin or TBSA (as background control). After incubating this mixture for 60 minutes at room temperature, 50 μL of 0.24 mM S-2238 was added to each well and the initial rate of the change of optical density at 405 nm (OD405nm) for each well was determined. OD405nm was measured every 10 seconds for 5 minutes.

Test [1] has as its target T4, Human recombinant t-PA (Activase®) (Homo sapiens, UniProt P00750).
T4 construct: purchased Genentech, Inc
Kind of test: tPA assay, chromogenic substrate Pefachrome tPA. The settings on record: 100 times the IC50 for factor Xa divided by the IC50 of tPA. The protocol: as §1, §2
Enzyme activity was determined using as substrate, Pefachrome tPA (O-methylsulfonate-D-hexahydrotyrosine-L-glycyl-L-argini ne-p-nit roanilide acetate salt) which was obtained from Centerchem, Inc. The substrate was made up in deionized water prior to use.
Human recombinant t-PA (Activase®) was obtained from Genentech, Inc. The enzyme was reconstituted with water, then diluted into TBSA prior to use.
The assay was run by combining in appropriate wells 50 μL of TBSA, 50 μL of inhibitor in TBSA or TBSA (as negative control) and 50 μL of 4 nM human recombinant tPA or TBSA (as background control). After incubating this mixture for 60 minutes at room temperature, 50 μL of 4 mM Pefachrome tPA was added to each well and the initial rate of the change of optical density at 405 nm (OD405nm) for each well was determined. OD405nm was measured every 10 seconds for 5 minutes.

Square brackets hold non-standard residues; d marks the D form. Peptide text beside a SMILES is read from it. * marks the point of attachment. d2Nal = N[C@H](Cc1ccc2ccccc2c1)C(=O)O; dPhg = N[C@@H](C(=O)O)c1ccccc1; Boc = CC(C)(C)OC(=O)* Where only a bound is given, the exact number is not on record here.

T4 sequence (P00750 36-562): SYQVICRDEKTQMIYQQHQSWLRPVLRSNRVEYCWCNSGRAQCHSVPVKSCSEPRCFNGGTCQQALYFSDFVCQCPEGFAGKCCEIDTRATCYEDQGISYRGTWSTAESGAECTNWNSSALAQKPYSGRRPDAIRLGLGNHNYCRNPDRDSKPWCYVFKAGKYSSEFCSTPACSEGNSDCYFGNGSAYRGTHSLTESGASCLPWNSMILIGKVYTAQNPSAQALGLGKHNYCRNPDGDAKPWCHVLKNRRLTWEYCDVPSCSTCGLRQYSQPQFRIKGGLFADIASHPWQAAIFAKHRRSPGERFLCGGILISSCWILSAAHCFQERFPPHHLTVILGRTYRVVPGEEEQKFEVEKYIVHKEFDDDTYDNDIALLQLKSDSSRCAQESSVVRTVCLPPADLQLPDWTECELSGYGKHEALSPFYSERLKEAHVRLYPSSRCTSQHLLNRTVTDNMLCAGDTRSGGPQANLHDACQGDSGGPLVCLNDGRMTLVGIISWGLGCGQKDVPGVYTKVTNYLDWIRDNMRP
T1 sequence (P00742 235-488 limits assumed): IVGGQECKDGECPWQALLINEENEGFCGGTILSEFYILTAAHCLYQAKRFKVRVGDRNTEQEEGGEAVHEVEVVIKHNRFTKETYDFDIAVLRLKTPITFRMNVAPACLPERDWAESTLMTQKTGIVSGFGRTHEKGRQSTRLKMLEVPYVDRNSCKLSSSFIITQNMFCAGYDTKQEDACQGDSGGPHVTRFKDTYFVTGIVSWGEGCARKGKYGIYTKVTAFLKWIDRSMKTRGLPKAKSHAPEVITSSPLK
T1 sequence (P00742 41-179 partner limits assumed): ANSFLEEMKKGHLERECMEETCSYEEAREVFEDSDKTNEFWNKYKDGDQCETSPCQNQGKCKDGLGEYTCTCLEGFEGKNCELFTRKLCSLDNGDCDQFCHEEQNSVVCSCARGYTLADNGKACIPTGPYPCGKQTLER
T2 sequence (P03951 388-625 limits assumed): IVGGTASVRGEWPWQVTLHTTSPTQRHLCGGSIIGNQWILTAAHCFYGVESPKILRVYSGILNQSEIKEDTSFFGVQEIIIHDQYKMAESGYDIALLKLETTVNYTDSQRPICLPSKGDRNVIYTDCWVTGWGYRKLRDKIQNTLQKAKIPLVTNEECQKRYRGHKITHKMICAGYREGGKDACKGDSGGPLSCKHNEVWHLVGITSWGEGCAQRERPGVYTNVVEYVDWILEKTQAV
T2 sequence (P03951 19-387 partner limits assumed): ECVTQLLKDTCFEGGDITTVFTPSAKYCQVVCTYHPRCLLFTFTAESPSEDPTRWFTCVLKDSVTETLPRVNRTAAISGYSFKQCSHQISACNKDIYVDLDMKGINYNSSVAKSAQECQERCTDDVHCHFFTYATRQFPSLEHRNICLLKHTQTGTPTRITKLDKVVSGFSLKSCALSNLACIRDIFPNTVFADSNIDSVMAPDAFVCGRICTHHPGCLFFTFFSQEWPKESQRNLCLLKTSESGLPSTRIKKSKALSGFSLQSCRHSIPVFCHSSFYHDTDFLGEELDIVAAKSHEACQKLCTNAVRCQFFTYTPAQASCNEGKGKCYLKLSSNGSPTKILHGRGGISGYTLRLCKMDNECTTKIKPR

On to `CC(C)(C)OC(=O)N[C@H](Cc1ccccc1)C(=O)N1CC[C@H](c2ccccc2)[C@H]1C(=O)N[C@H](C=O)CCCNC(=N)N` (relative stereo) [[10], N-t-butoxycarbonyl-D-phenylalanyl-L-(3-trans-phenyl)prolinyl-L-argininal], for which the “Percent Selectivity Xa” value on Human factor Xa stood at 100. At Human factor XIa, the “Percent Selectivity XIa” value is given as under 2.5. For the same molecule, on Human α-thrombin, the “Percent Selectivity Thrombin” value is reported as under 2.5. Besides, the “Percent Selectivity tPA” value in test [1] is under 2.5.

As for `CC(C)(C)OC(=O)N[C@H](Cc1ccc2ccccc2c1)C(=O)N[C@@H](Cc1ccccc1)C(=O)N[C@H](C=O)CCCNC(=N)N` [[1], N-t-butoxycarbonyl-D-3-(2-naphthyl)alanyl-L-phenylalanyl-L-araininal] (Boc-[d2Nal]-Phe-Arg-aldehyde), the “Percent Selectivity Xa” value at Human factor Xa was determined as 100. Moreover, at Human factor XIa, the “Percent Selectivity XIa” value was found to be 1.4. Moreover, at Human α-thrombin, the “Percent Selectivity Thrombin” value stood at 1.6. Also, in test [1], the “Percent Selectivity tPA” value was under 0.9.

`CC(C)(C)OC(=O)N[C@@H](C(=O)N[C@@H](Cc1ccccc1)C(=O)N[C@H](C=O)CCCNC(=N)N)c1ccccc1` [[2], N-t-butoxycarbonyl-D-2-phenylglycyl-L-phenylalanyl-L-araininal] (Boc-[dPhg]-Phe-Arg-aldehyde): on Human factor Xa, the “Percent Selectivity Xa” value was 100. Also, the “Percent Selectivity XIa” value at Human factor XIa was 4.9. Moreover, the “Percent Selectivity Thrombin” value on Human α-thrombin is given as under 2.6. Moreover, the “Percent Selectivity tPA” value in test [1] is on record as under 2.6.

As to `CC(C)(C)OC(=O)N[C@H](Cc1ccccc1)C(=O)N[C@@H](Cc1ccccc1)C(=O)N[C@H](C=O)CCCNC(=N)N` [[4], N-t-butoxycarbonyl-D-phenylalanyl-L-phenylalanyl-L-argininal] (Boc-[dF]-Phe-Arg-aldehyde), at Human factor Xa, the “Percent Selectivity Xa” value was 100. Moreover, the “Percent Selectivity XIa” value on Human factor XIa is listed as 0.8. Besides, the “Percent Selectivity Thrombin” value on Human α-thrombin is listed as under 0.8. The “Percent Selectivity tPA” value in test [1] is given as under 0.8.

Take `CC(C)(C)OC(=O)NC(C(=O)N[C@@H](Cc1cccc2ccccc12)C(=O)N[C@H](C=O)CCCNC(=N)N)c1ccc(-c2ccccc2)cc1` (stereo partly drawn) [[7], N-t-butoxycarbonyl-D,L-(α-biphenyl)qlycyl-L-3-(1-naphthyl)alanyl-L-argininal]: at Human factor Xa, the “Percent Selectivity Xa” value amounted to 100. In addition, at Human factor XIa, the “Percent Selectivity XIa” value is given as under 10. The “Percent Selectivity Thrombin” value on Human α-thrombin is listed as under 10. Besides, the “Percent Selectivity tPA” value in test [1] is on record as under 10.
